Assays:
[1] = target: T1, Serine/threonine-protein kinase A-Raf (Homo sapiens, UniProt P10398); assay: Inhibition of A-raf (unknown origin)
T1 sequence (P10398 whole entry): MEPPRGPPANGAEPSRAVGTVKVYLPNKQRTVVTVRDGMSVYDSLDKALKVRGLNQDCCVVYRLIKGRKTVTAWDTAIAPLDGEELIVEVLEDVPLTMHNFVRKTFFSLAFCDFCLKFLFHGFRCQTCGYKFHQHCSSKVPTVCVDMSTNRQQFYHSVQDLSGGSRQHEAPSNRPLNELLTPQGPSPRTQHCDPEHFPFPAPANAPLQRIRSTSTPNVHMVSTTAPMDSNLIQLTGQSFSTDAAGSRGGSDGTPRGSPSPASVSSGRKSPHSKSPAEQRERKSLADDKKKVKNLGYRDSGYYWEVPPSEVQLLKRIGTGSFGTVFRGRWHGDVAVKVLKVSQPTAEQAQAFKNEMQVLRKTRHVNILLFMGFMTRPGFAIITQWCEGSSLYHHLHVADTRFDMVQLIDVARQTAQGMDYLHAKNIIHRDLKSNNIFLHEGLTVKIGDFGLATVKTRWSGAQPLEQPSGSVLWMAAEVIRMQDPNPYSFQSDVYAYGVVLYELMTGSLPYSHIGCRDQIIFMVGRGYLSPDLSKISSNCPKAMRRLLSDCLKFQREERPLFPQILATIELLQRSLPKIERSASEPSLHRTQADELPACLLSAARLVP

[2] = target: RAF proto-oncogene serine/threonine-protein kinase (Homo sapiens, UniProt P04049); assay: Inhibition of human C-raf using biotin-MEKl substrate incubated for 1 hr
Sequence of RAF proto-oncogene serine/threonine-protein kinase (P04049 whole entry): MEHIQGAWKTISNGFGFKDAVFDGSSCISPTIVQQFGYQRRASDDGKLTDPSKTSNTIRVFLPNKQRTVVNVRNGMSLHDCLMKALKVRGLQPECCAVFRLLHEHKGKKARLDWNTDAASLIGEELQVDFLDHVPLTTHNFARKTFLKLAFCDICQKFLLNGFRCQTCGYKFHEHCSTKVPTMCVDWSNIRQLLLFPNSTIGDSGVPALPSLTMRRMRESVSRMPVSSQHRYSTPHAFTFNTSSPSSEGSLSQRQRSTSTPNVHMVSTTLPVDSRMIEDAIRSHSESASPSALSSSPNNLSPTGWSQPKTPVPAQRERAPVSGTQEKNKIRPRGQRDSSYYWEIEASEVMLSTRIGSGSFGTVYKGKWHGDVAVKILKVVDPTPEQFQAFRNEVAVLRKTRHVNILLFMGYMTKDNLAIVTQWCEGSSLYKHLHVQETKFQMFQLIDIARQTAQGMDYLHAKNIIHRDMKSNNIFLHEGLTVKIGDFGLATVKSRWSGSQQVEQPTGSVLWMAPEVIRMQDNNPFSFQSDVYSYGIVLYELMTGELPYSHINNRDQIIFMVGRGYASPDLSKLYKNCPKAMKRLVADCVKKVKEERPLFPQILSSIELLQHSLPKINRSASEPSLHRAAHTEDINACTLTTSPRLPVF

[3] = target: Serine/threonine-protein kinase B-raf (Homo sapiens, UniProt P15056); assay: Inhibition of N-terminal GST-tagged human recombinant B-Raf (416 to end residues) using biotin-MEKl substrate incubated for 1 hr
Sequence of Serine/threonine-protein kinase B-raf (P15056 whole entry): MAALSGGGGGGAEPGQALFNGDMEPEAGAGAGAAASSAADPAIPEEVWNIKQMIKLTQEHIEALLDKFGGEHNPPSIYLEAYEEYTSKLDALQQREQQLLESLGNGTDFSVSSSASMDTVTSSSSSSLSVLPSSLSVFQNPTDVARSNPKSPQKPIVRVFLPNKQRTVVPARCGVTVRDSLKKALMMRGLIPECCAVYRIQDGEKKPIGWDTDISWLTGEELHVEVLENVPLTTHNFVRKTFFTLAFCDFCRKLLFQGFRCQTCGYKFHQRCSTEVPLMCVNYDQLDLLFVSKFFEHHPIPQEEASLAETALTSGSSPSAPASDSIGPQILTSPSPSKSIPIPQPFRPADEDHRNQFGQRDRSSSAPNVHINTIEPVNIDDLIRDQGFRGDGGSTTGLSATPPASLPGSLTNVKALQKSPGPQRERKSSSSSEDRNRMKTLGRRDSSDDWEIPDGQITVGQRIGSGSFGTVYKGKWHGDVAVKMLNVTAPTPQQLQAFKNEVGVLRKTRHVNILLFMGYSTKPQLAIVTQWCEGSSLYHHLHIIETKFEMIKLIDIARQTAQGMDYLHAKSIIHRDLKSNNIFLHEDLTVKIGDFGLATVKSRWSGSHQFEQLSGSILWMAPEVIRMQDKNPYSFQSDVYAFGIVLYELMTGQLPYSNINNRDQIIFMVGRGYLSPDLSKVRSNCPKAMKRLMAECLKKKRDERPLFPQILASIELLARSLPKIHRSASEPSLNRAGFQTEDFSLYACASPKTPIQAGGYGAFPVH

[4] = target: Vascular endothelial growth factor receptor 2 (Homo sapiens, UniProt P35968); assay: Inhibition of KDR (unknown origin)
Sequence of Vascular endothelial growth factor receptor 2 (P35968 whole entry): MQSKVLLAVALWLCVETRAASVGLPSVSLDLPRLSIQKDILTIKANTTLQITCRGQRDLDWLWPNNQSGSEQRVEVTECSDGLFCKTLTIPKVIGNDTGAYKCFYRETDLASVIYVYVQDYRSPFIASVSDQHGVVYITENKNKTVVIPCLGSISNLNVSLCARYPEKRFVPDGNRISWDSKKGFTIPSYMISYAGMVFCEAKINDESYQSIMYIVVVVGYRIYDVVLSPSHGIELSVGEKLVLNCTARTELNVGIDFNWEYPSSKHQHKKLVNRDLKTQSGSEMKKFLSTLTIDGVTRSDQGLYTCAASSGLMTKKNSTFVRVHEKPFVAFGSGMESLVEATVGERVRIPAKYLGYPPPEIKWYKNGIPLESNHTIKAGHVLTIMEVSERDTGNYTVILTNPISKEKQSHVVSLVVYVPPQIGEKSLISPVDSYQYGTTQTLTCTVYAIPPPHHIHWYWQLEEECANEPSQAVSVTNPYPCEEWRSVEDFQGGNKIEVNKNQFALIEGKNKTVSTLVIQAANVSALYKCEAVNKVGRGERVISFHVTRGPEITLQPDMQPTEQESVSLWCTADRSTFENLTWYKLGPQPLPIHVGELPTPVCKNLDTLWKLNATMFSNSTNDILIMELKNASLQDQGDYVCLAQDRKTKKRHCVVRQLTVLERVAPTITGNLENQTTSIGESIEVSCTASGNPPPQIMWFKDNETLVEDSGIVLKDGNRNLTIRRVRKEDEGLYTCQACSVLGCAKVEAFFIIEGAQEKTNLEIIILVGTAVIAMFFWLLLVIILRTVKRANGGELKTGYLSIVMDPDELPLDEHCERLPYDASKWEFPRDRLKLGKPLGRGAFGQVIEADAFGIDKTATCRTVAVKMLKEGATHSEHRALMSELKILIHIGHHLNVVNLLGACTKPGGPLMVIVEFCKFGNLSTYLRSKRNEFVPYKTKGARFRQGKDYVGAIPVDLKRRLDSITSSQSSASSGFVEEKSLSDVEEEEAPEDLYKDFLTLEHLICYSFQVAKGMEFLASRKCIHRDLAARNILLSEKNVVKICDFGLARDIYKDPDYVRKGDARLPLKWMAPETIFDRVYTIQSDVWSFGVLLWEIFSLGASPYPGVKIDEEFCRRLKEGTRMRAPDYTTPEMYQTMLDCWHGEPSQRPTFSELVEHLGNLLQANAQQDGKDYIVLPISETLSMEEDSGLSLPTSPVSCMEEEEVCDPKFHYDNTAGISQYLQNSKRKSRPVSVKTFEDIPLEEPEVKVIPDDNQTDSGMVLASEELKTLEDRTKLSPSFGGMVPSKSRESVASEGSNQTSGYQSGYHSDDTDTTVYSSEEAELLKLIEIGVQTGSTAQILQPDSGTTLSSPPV

[5] = target: Proto-oncogene tyrosine-protein kinase Src (Homo sapiens, UniProt P12931); assay: Inhibition of Src (unknown origin) expressed in Escherichia coli using biotin-(E4Y)3 substrate
Sequence of Proto-oncogene tyrosine-protein kinase Src (P12931 2-536 limits assumed): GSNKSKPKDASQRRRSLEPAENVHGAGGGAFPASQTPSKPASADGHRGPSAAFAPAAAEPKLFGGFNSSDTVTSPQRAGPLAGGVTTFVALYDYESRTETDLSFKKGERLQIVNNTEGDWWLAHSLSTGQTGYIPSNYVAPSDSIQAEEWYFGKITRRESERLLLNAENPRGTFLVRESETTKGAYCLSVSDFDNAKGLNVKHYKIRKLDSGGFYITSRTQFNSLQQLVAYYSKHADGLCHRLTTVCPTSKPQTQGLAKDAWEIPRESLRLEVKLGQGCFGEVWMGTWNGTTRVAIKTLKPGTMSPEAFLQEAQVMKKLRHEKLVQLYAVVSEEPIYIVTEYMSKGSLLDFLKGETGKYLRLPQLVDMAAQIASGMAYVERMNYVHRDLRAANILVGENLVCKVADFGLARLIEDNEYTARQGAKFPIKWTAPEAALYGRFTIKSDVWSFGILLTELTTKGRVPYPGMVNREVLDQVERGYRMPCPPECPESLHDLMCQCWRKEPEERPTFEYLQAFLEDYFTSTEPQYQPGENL

Row | Structure (SMILES) | IC50 [1] | IC50 [2] | IC50 [3] | IC50 [4] | IC50 [5]
1 | CCCS(=O)(=O)Nc1ccc(F)c(C(=O)c2c[nH]c3ncc(Br)nc23)c1F | ≤ 10 µM | ≤ 10 µM |  |  | 
2 | CCCS(=O)(=O)Nc1ccc(F)c(C(=O)c2c[nH]c3ncc(-c4cnc(OC)nc4)nc23)c1F | ≤ 10 µM | ≤ 10 µM | ≤ 10 µM |  | 
3 | O=C(c1cccc(NS(=O)(=O)c2ccc(C(F)(F)F)cc2)c1F)c1c[nH]c2nccnc12 | ≤ 10 µM | ≤ 10 µM | ≤ 10 µM |  | 
4 | CCCS(=O)(=O)Nc1ccc(F)c(C(=O)c2c[nH]c3ncc(-c4cnn(C)c4)nc23)c1F |  |  |  | ≤ 10 µM | ≤ 10 µM
5 | O=C(c1c(F)ccc(NS(=O)(=O)c2ccc(C(F)(F)F)cc2)c1F)c1c[nH]c2nccnc12 | ≤ 10 µM | ≤ 10 µM |  |  | 
6 | CCCS(=O)(=O)Nc1ccc(F)c(C(=O)c2c[nH]c3nccnc23)c1F | ≤ 10 µM | ≤ 10 µM | ≤ 10 µM |  | 
7 | CCCS(=O)(=O)Nc1ccc(F)c(C(=O)c2c[nH]c3ncc(C#N)nc23)c1F |  |  |  |  | ≤ 10 µM

Reference: ChEMBL document CHEMBL3714760, “Substituted pyrrolo[2,3b]pyrazines and methods for treatment of raf protein kinase-mediated indications” (2012)
